Data published in US20210177778A1, “EXOSOME PRODUCTION PROMOTER” (DAICEL CORPORATION, priority 2017, published 2021).

Test system: Human neuroblastoma-derived SH-SY5Y cell
Test: Number of exosome particles released by SH-SY5Y cells after sphingolipid addition (qNano)
Format: cell-based
Conditions: 10 μM sphingolipid, 24 hours, particles per mg cell protein
Description: Human neuroblastoma-derived SH-SY5Y cell was used as the cultured cell. After the cell was inoculated in a 6-well plate at 2.5×10^5 cells/well together with a medium (50% Ham's F12/50% E-MEM) and cultured at 37° C. for 24 hours, the animal ceramide (Cer), sphingomyelin (SM), or glucosylceramide (GuCer) sphingolipid was each added to each well. The sphingolipid was suspended in a serum-free medium (50% Ham's F12/50% E-MEM) containing 3% bovine serum albumin (BSA), and added so that the concentration in the well was 10 μM. The control was performed when the added amount of sphingolipid was 0 μM. […]
The exosome recovered by the centrifugation method was suspended in a HEPES/KCl buffer, and then the number of particles was measured with a nanoparticle analyzer qNano (Izon Inc.). The measured value was expressed as the number of particles per protein mass (mg) of the derived cell calculated by the BCA method. […]
Experimental Example 2 was performed under the same conditions as in the above Experimental Example 1 except that the konjac-derived glucosylceramide (kGluCer) or the konjac-derived ceramide (kCer) are used as the sphingolipid and sphingolipids having concentrations of 5 μM, 7.5 μM, or 10 μM, respectively, were added to the cell in place of a concentration of 0 μM (control), and the number of exosome particles was measured.

SMILES	number of exosome particles compared to the control
CCCCCCCCCCCCC/C=C/[C@@H](O)[C@H](CO)NC(=O)CCCCC [C6 ceramide, N-hexanoyl-D-erythro-sphingosine]	further promoted
CCCCCCCCCCCCC/C=C/[C@@H](O)[C@H](CO)NC(=O)CCCCCCCCCCCCCCCCC [C18 ceramide, N-stearoyl-D-erythro-sphingosine]	further promoted
